Laboratory results: patent publication US20180153872A1, “HETEROARYL CARBONITRILES FOR THE TREATMENT OF DISEASE” (OPKO Health, Inc., priority 2015, published 2018)
“And” between values parts separate entries of the source, which are not always exact repeats. Identical values can stand only once.

Legend:
[1] = target: T1, NK3 receptor (Homo sapiens, UniProt P29371); test: NK3 receptor affinity; type: binding
T1 sequence (P29371 1-465): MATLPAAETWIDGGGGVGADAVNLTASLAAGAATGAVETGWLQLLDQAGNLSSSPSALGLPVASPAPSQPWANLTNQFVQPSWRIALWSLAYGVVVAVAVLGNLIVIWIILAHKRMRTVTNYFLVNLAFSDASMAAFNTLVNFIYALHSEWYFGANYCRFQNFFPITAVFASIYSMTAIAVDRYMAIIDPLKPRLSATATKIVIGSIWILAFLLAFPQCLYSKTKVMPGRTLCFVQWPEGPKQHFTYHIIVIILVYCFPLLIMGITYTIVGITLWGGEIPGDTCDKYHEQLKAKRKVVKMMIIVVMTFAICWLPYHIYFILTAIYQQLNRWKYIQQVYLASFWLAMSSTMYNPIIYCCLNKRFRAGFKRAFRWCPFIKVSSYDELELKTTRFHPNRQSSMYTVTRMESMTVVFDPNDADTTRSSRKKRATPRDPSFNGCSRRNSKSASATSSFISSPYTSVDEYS
Description: A compound of formula I (also designated SCH 900978) is a potent, selective, competitive neurokinin-1 (NK-1) receptor antagonist that is effective as an oral administered drug for the treatment of cough and meets this unmet medical need. In addition, this drug is effective for the treatment of overactive bladder (OAB) and other selected indications including major depression and alcohol dependency. […] The present invention comprises a compound of formula I having an effective dose for 90% inhibition [ED90]=0.2 mg/kg as determined in an in vivo pharmacodynamic model of NK1 receptor activity (gerbil foot thumping).
(§1) SCH900978 was also tested for NK2 and NK3 receptor activity and in 106 other receptors, transporters, enzymes and ion channels and had greater than 1000 fold lower affinity for these than for the NK1 receptor.

[2] = Pharmacokinetics/toxicokinetics and excretion in rats; type: in vivo, rat; details: for plasma concentration-time profile: single oral dose
Description: (§2) Urinary excretion was also substantial (approximately 20%).

[3] = target: hERG gene current (Homo sapiens, UniProt Q12809); test: hERG current inhibition; type: cell-based
Protocol: (§3) A series of in vitro and in vivo studies examined the effects of SCH900978 on cardiovascular, respiratory and CNS functions. No adverse effects were observed. The NOAEL was ≥25 mg/kg in male rats, ≥12.5 mg/kg in female rats and ≥10 mg/kg in male cynomolgus monkeys; each dose was the highest dose tested.

[4] = Plasma protein binding; type: in vitro ADME; details: all mammals tested and human
Description: as §2

[5] = test system: cough induced by mechanical stimulation of the intrathoracic trachea; test: Mechanically induced cough in anesthetized dogs; type: in vivo; details: anesthetized dog, 0.3 mg/kg oral
Protocol: (§4) The antitussive activity of SCH 900978 was also evaluated against cough induced by mechanical stimulation of the intrathoracic trachea in anesthetized dogs. Cough was measured in each stimulation trial by the cough frequency (number of coughs) and cough amplitude (cm H2O increase in expiratory pressure). […] Plasma concentration of SCH900978 at 2, 6 and 25 hours after administration of the 0.3 mg/kg dose to dogs were 201, 151 and 102 ng/mL (373, 280 and 189 nM), respectively.

[6] = in vivo
Protocol: as §3

[7] = Brain penetration, rats; type: in vivo, rat
Protocol: as §2
The extent of brain penetration by SCH 900978 was evaluated after oral administration of SCH 900978 amorphous hydrochloride to female gerbils (0.1 mg/kg), male Sprague Dawley rats (5 mg/kg), and male guinea pigs (0.3 mg/kg).

[8] = log D, octanol/water; type: physicochemical; details: pH 7.4, octanol/water system
Description: The present invention comprises a compound having activity in mammalian cough models and is thus useful in the treatment of cough in mammals, including humans, after oral administration. The present invention comprises an oral formulation of a compound of formula I and pharmaceutically acceptable excipients selected from the group consisting of diluents, binders, disintegrants, wetting agents and lubricants. In a preferred embodiment the pharmaceutical composition comprises a compound of formula I (or IIa-IIc) or II and lactose monohydrate, microcrystalline cellulose, povidone, crospovidone, poloxamer 188 and magnesium stearate. The preferred oral form is a capsule. The amount of active ingredient in the capsule or oral dosage form may range from 1 mg to 250 mgs with a preferred range of 10-150 mg with a more preferred range of 20-100 mg per day in humans. The present invention also relates to an NK-1 antagonist (e.g., Formula II) having a half-life of approximately 10-13 days. The present invention further relates to a method of treating pruritus comprising administering a pharmaceutically effective amount of a compound of formula II having a half-life of 10-13 days to a patient in need of treatment thereof. […] The measured onset melting temperature as measured by differential scanning calorimetry (DSC) is 168.9. […]

[9] = target: T2, NK1 receptor (Canis lupus familiaris, UniProt Q5DUB3); test: Substance P-elicited blood pressure and minute volume changes in dogs; type: in vivo; details: dog, 0.3 mg/kg oral
T2 construct: from tissue; host or cells: living dog

[10] = test system: 106 other receptors, transporters, enzymes and ion channels; test: Panel of 106 other receptors, transporters, enzymes and ion channels; type: binding
Protocol: as §1

[11] = Plasma concentration after oral dose in dogs; type: in vivo; details: dog, 0.3 mg/kg oral
Protocol: as §4

[12] = target: NK1 receptor (Meriones unguiculatus, UniProt Q5DUB1); test: NK1 receptor radioligand binding, gerbil; details: no unit, Ki in nM
Protocol: as §1

T2 sequence (Q5DUB3 whole entry): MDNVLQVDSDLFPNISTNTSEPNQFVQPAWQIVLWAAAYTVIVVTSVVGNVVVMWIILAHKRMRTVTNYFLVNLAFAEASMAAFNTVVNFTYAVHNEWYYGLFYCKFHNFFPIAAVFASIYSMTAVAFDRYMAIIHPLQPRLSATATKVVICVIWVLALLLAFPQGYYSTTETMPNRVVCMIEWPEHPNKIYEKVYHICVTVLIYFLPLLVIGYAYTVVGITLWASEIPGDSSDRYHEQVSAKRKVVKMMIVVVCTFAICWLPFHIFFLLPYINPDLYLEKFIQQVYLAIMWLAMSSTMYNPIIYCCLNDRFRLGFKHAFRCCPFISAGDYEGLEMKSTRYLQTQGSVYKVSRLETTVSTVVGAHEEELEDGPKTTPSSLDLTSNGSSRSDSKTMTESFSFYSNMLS
Sequence of NK1 receptor (Meriones unguiculatus, UniProt Q5DUB1) (Q5DUB1 whole entry): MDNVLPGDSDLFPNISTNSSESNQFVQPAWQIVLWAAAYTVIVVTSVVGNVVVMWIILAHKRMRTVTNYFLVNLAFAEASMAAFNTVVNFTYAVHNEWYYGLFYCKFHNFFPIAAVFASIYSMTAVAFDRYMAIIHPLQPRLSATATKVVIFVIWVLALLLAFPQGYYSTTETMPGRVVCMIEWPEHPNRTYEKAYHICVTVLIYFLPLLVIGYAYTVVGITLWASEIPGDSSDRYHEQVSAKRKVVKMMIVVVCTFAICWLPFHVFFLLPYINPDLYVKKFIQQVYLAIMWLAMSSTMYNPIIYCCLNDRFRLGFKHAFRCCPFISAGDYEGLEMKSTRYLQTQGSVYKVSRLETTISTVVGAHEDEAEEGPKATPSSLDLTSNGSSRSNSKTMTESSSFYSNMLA
Sequence of hERG gene current (Q12809 whole entry): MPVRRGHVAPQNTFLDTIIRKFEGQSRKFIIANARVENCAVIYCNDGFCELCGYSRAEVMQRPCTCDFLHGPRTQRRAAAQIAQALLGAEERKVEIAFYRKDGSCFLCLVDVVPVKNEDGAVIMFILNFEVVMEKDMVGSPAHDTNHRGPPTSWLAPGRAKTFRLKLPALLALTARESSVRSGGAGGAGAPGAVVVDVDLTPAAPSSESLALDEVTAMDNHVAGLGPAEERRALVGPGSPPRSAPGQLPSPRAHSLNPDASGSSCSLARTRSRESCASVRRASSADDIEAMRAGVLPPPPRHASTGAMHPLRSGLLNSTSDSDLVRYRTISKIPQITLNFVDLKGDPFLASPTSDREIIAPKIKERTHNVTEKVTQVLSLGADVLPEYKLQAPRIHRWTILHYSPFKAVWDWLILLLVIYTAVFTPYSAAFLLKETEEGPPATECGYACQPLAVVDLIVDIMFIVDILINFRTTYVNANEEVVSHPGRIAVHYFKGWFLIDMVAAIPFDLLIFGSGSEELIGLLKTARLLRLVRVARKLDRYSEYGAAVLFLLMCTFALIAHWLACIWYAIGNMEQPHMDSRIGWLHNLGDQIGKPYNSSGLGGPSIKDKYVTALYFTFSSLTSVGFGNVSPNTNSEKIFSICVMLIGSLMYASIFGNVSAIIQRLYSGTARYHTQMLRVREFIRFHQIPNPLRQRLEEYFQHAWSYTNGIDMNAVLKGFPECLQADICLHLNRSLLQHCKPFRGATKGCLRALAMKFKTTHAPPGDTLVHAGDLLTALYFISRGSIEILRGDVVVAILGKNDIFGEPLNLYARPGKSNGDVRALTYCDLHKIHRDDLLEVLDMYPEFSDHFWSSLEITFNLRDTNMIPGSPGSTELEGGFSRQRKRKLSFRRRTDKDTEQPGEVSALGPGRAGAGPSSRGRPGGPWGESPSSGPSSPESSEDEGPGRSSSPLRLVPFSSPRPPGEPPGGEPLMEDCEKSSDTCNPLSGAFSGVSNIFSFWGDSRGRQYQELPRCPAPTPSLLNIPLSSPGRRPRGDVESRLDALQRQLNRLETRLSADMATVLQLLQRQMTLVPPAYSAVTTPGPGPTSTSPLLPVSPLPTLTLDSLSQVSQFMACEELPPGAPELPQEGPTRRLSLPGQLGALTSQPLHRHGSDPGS

C[C@@H](OC[C@@]1(c2ccccc2)CC[C@](C#N)(n2cn[nH]c2=O)CN1)c1cc(C(F)(F)F)cc(C(F)(F)F)c1 [Compound 42, (3 S,6S)-6-({(1R)-1-[3,5-bis(trifluoromethyl)phenyl]ethoxy}methyl)-3-(5-oxo-1,5dihydro-4H-1,2,4-triazol-4-yl)-6-phenylpiperidine-3-carbonitrile]
Ki [1]: > 1000 nM | fold lower affinity than for the NK1 receptor ([1]; NK3 vs NK1): greater than 1000 fold | systemic exposure after repeated administration ([2]; female and male rats, doses >=25 mg/kg, most likely CYP enzyme induction): decreased following repeated administration | plasma concentrations over 24 hours after 29th dose versus first dose ([2]; female rats 0.5 to 12.5 mg/kg, male rats 1 to 5 mg/kg): greater | systemic exposure (AUC) versus dose, single dose ([2]; male rats 0.6 to 500 mg/kg, female rats 0.5 to 250 mg/kg, no further increase at the highest doses): increased with increasing dose | exposure, effect of sex ([2]; rats): higher in female rats than in male rats | exposure versus dose ([2]; rats, once daily oral doses for one month): generally increased as the dose increased | major elimination pathway ([2]; rats, oral administration): excretion into the feces | plasma concentration-time profile ([2]; rats, listed as SCH 900978): extended absorption of SCH900978 with a long t1/2 | plasma concentration-time profile ([2]; rats, listed as SCH900978): extended absorption of the drug and a long apparent terminal elimination phase half-life | IC50 [3]: 860 nM | protein bound [4]: ≥ 99.6% | duration of significantly reduced cough amplitude [5]: up to 24 hours | duration of significantly reduced cough frequency [5]: up to 24 hours | NOAEL ([6]; female, rat): ≥ 12.5 mg/kg | NOAEL ([6]; male, cynomolgus monkey): ≥ 10 mg/kg | NOAEL ([6]; male, rat): ≥ 25 mg/kg | crossing of the blood brain barrier [7]: readily crossed the blood brain barrier | logD [8]: 4.5 | inhibition of substance P-elicited increase in minute volume [9]: maximally inhibited | inhibition of substance P-elicited reduction in blood pressure [9]: maximally inhibited | affinity for a battery of other receptors, transporters, enzymes or ion channels [10]: does not have significant affinity | fold lower affinity than for the NK1 receptor ([10]; 106 other receptors, transporters, enzymes and ion channels vs NK1): greater than 1000 fold | concentration at 2 h ([11]; 2 hours): 201 ng/mL and 373 nM | concentration at 6 h ([11]; 6 hours): 151 ng/mL and 280 nM | concentration at 25 h ([11]; 25 hours): 102 ng/mL and 189 nM | Ki [12]: 0.2 nM
